Where two headings read alike, the source gives them in different places.
Experiments:
[1] = cited from earlier work
[2] = Closed lactone form in plasma of mice after intrastomach administration; format: in vivo; conditions: mice, plasma after intrastomach administration (FIG. 1)
U-937 cells = assay: Growth inhibition of U-937 cells treated with CPT esters; format: cell-based; conditions: 0.2 μM, 120 hr, percent of exponential growth of untreated cells (100%), mean of four estimates
Protocol: Growth inhibition of U-937 cells treated with various CPT esters.
Each identified compound was added to reach a culture of U-937 cell having a final concentration of 0.2 μM. The treatment time was for 120 hr. Growth inhibition in each of the treated cultures was then estimated as a percent of the exponential growth of the cells that was considered 100%. Each estimate was the mean value of four estimates.

[3] = Stability of lactone form in human plasma; format: in vitro ADME; conditions: for Percent in plasma (lactone, percent of the initial lactone amount added): 1 μg/ml
Protocol: CPT or SF6A lactone was added to human plasma (1 μg/ml) and an incubation and lactone determination were made as described in Example 15. The lactone amount at each time-point was detected after removing the carboxylate form, and subsequently was calculated as percent of the initial lactone amount added. The results shown in this Table below were derived from one of the three independent experiments performed using different incubation times. The pattern of quantitation of the lactones was similar in all three experiments.

[4] = Closed lactone form in human plasma after oral administration; conditions: for % present as closed lactone form in human blood/plasma: after oral administration (FIGS. 2, 4, 5, 7, 8)
human tumor xenografts = conditions: nude mice
2774 ovarian carcinoma = conditions: for tumor size: day 41 (FIG. 13)
Protocol: (§1) One group of six nude mice where treated interstomach with 10 or 20 mg,/kg body weight Compound IA in cottonseed oil per day for five consecutive days with two day intervals of no treatment (i.e., five days of treatment then two days no treatment, and five day treatment and so on). Another group of six nude mice were treated with 10 or 20 mg/kg body weight Compound IA in the same manner. There were also two control groups of six nude mice each. The designation of “fast” means no food was fed to the mice for at least 12 hours before treatment and the designation of “non-fast” means fed normally. Thus, in this experiment, there were 4 groups of mice with 6 mice in each group.
The route of administration and the dosage regimen were the same as in FIG. 9 except there were only 5 mice in each group and only one control group was used.

SW48 colon carcinoma = conditions: interstomach 10 or 20 mg/kg in cottonseed oil, 5 days on/2 days off, fast and non-fast, day 13-34 (FIG. 9)
Excerpt: (§2) Swiss nude mice of the NIH high fertility strain were bred and maintained pathogen-free in a laboratory. (Giovanella, B. C. and Stehlin, J. S. “Heterotransplantation of human malignant tumors in ‘nude’ thymusless mice. I. Breeding and maintenance of ‘nude’ mice.” J. Natl. Cancer Inst. 51: 615-619; 1973.)
(§3) Human malignant carcinomas of the colon, breast, lung, ovary, stomach, pancreas, bladder, prostate, osteosarcoma and malignant melanomas were heterotransplanted directly from patients into the nude mice and passaged serially. In particular, the tumors CLO, MUR, CAS, SW 48, SQU and BRO as described in Giovanella, B. C., Stehlin, J. S., Shepard, R. C. and Williams, L. J. “Correlation between response to chemotherapy of human tumors in patients and in nude mice.” Cancer 52: 1146-1152; 1983, tumor SCH as described in Heim, S., Mandahl, N., Arheden, K., Giovanella, B. C., Yim, S. O., Stehlin, J. S., Jr. and Mitebman, F. “Multiple karyotypic abnormalities including structural rearrangements of 11P in cell lines from malignant melanomas.” Cancer Genet. Cytogent, 35:5-20; 1988, and Verschraegen, C., Ciovanella, B. C., Mendoza, J. T., Kozielski, A. J. and Stehlin, J. S., Jr. “Specific organ metastases of human melanoma cells injected into the arterial circulation of nude mice.” Anticancer Res., In Press, and tumor PC-3 as described in Invest. Urol. 17, 16-23, 1979, were used. […]

SQU colon carcinoma = conditions: 10 mg/kg intrastomach or intramuscular, until day 111 (FIG. 15)
Excerpt: as §2, §3

BRE stomach carcinoma = conditions: 10 and 20 mg/kg intrastomach, until day 34 (FIG. 11)
Excerpt: Human malignant carcinomas of the colon, breast, lung, ovary, stomach, pancreas, bladder, prostate, osteosarcoma and malignant melanomas were heterotransplanted directly from patients into the nude mice and passaged serially. […] Tumors DOY and HAR (undifferentiated non-oat cell carcinomas of the lung), DIL (a poorly differentiated squamous cell carcinoma of the lung), SPA (a moderately differentiated adenocarcinoma of the lung), LAN (an undifferentiated carcinoma of the ovary), and BRE (a moderately differentiated adenocarcinoma of the stomach) where heterotransplanted. For the experiments, the tumor tissue was finely minced in complete MEM medium and 0.5 ml of a 10% v/v suspension was inoculated subcutaneously on the upper back of groups of 10-30 mice. When the tumors became palpable and measurable in all the animals, they were divided into groups of 4-8 and treated with the desired dose of the drug in experiment or with the vehicle only for the controls,
The dosage regimen and manner of administration are the same as in FIG. 9 except there were 5 mice per group and only one control group.

McC colon carcinoma = conditions: 20 mg/kg intrastomach or intramuscular twice a week, day 11 to day 25 (FIG. 14)
Protocol: as §1

DOY lung carcinoma = conditions: 10 and 20 mg/kg intrastomach, day 34 (FIG. 12)
Excerpt: as §3

BRO melanoma = conditions: 20 mg/kg intrastomach, 20 days (FIG. 10)
Excerpt: as §3

CC[C@@]1(O)C(=O)OCc2c1cc1n(c2=O)Cc2cc3ccccc3nc2-1 [CPT, 20(S)-camptothecin]
solubility in water [1]: insoluble in water
closed lactone form, share of the area under the curve [2]: approximately 54%
Growth % (U-937 cells): 0.0%
Lactone % in Human Plasma ([3]; Time 0 Hr): 100%
Lactone % in Human Plasma ([3]; Time 1 Hr): 12%
Lactone % in Human Plasma ([3]; Time 2 Hr): 0.5%
Lactone % in Human Plasma ([3]; Time 4 Hr): 0%
Lactone % in Human Plasma ([3]; Time 6 Hr): 0%
metabolite detected ([3]; human plasma): the only metabolite detected is the ring-opened sodium carboxylate salt
Percent in plasma (lactone, percent of the initial lactone amount added) ([3]; human plasma, incubation time 0.0 hr): 100.0%
Percent in plasma (lactone, percent of the initial lactone amount added) ([3]; human plasma, incubation time 0.5 hr): 40.0%
Percent in plasma (lactone, percent of the initial lactone amount added) ([3]; human plasma, incubation time 1.0 hr): 12.0%
Percent in plasma (lactone, percent of the initial lactone amount added) ([3]; human plasma, incubation time 2.0 hr): 0.5%
Percent in plasma (lactone, percent of the initial lactone amount added) ([3]; human plasma, incubation time 4.0 hr): 0.0%
Percent in plasma (lactone, percent of the initial lactone amount added) ([3]; human plasma, incubation time 6.0 hr): 0.0%
Percent in plasma (lactone, percent of the initial lactone amount added) ([3]; human plasma, incubation time 27.0 hr): 0.0%
half-life ([3]; human, human plasma, read-out: half-life time of the drug with lactone intact): 30 min
% present as closed lactone form in human blood/plasma [4]: 0.4%
closed ring lactone form, share of the area under the curve ([4]; humans, after oral administration (FIG. 2)): about 0.4%

CCC(=O)O[C@]1(CC)C(=O)OCc2c1cc1n(c2=O)Cc2cc3c([N+](=O)[O-])cccc3nc2-1 [Prodrug 11, 9-Nitrocamptothecin-20-O-propionate]
antitumor activity against xenografts of human tumors (human tumor xenografts): even higher than the camptothecin analogue, Prodrug 2
survival (2774 ovarian carcinoma; 5 mice per group, day 41): all mice survived the experiment in each group
tumor size (2774 ovarian carcinoma; higher dosage (10 and 20 mg/kg tested) intrastomach): quite effective in reducing the tumor size
tumor size (2774 ovarian carcinoma; lesser dosage (10 and 20 mg/kg tested) intrastomach): steady increase in tumor size
tumor size (SW48 colon carcinoma): decline in the tumor size
tumor size (SQU colon carcinoma): essentially stabilized
tumor size (BRE stomach carcinoma): prevention of the growth in the tumor size
% present as closed lactone form in human blood/plasma [4]: 68.7%
increase of lactone share over the parent compound ([4]; human, oral administration, versus CPT or 9NC): more than twentyfold
tumor size (McC colon carcinoma): increased slightly but then stabilized
tumor size (DOY lung carcinoma): dramatic reduction
tumor size (BRO melanoma): decreased in size

— patent publication US6352996B1, “Liposomal prodrugs comprising derivatives of camptothecin and methods of treating cancer using these prodrugs” (priority 1999, dated 2002)
